Results from ChEMBL document CHEMBL1201861, “Genomics of Drug Sensitity in Cancer screening data, Wellcome Trust Sanger Institute”.

Key:
KARPAS-422 = assay: cells; assay type: functional, cell-based; conditions: Homo sapiens
Description: SANGER: Inhibition of human KARPAS-422 cell growth in a cell viability assay.

LB996-RCC = assay: cells; assay type: functional, cell-based; conditions: Homo sapiens
Description: SANGER: Inhibition of human LB996-RCC cell growth in a cell viability assay.

COLO-678 = assay: cells; assay type: functional, cell-based; conditions: Homo sapiens
Description: SANGER: Inhibition of human COLO-678 cell growth in a cell viability assay.

HT-1376 = assay: cells; assay type: functional, cell-based; conditions: Homo sapiens
Description: SANGER: Inhibition of human HT-1376 cell growth in a cell viability assay.

KYSE-410 = assay: cells; assay type: functional, cell-based; conditions: Homo sapiens;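 also: growth inhibition of KYSE-410 cells, measured through a cell viability readout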
Description: SANGER: Inhibition of human KYSE-410 cell growth in a cell viability assay.

SW626 = assay: cells; assay type: functional, cell-based; conditions: Homo sapiens;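 also: growth inhibition of SW626 cells, measured with a cell viability assay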
Description: SANGER: Inhibition of human SW626 cell growth in a cell viability assay.

HEC-1 = assay: cells; assay type: functional, cell-based; conditions: Homo sapiens;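 also: growth inhibition of the cell line, read out with a cell viability assay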
Description: SANGER: Inhibition of human HEC-1 cell growth in a cell viability assay.

639-V = assay: cells; assay type: functional, cell-based; conditions: Homo sapiens;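 also: growth inhibition of 639-V cells, read out with a cell viability assay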
Description: SANGER: Inhibition of human 639-V cell growth in a cell viability assay.

5637 = assay: cells; assay type: functional, cell-based; conditions: Homo sapiens
Description: SANGER: Inhibition of human 5637 cell growth in a cell viability assay.

CESS = assay: SANGER: Inhibition of human CESS cell growth in a cell viability assay.; assay type: functional, cell-based
PC-14 = assay: cells; assay type: functional, cell-based; conditions: Homo sapiens;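 also: cell viability assay measuring inhibition of PC-14 cell growth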
Description: SANGER: Inhibition of human PC-14 cell growth in a cell viability assay.

SAS = assay: cells; assay type: functional, cell-based; conditions: Homo sapiens;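 also: growth inhibition of SAS cells, read out with a cell viability assay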
Description: SANGER: Inhibition of human SAS cell growth in a cell viability assay.

LP-1 = assay: cells; assay type: functional, cell-based; conditions: Homo sapiens;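 also: growth inhibition of human LP-1 cells, with the read-out taken from a cell viability assay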
Description: SANGER: Inhibition of human LP-1 cell growth in a cell viability assay.

CAL-12T = assay: cells; assay type: functional, cell-based, Homo sapiens; conditions: Homo sapiens, CAL-12T;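 also: growth inhibition of human CAL-12T cells, read out with a cell viability assay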
Description: SANGER: Inhibition of human CAL-12T cell growth in a cell viability assay.

NCI-H661 = assay: cells; assay type: functional, cell-based; conditions: Homo sapiens;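 also: cell viability assay read-out, IC50 being the concentration that inhibits growth of the cells by half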
Description: SANGER: Inhibition of human NCI-H661 cell growth in a cell viability assay.

LN-405 = assay: cells; assay type: functional, cell-based; conditions: Homo sapiens
Description: SANGER: Inhibition of human LN-405 cell growth in a cell viability assay.

HCC1569 = assay: cells; assay type: functional, cell-based; conditions: Homo sapiens;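 also: growth inhibition of human HCC1569 cells, read out with a cell viability assay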
Description: SANGER: Inhibition of human HCC1569 cell growth in a cell viability assay.

MCF7 = assay: cells; assay type: functional, cell-based; conditions: Homo sapiens;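 also: growth inhibition of human MCF7 cells, read out with a cell viability assay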
Description: SANGER: Inhibition of human MCF7 cell growth in a cell viability assay.

HSC-3 = assay: cells; assay type: functional, cell-based; conditions: Homo sapiens
Description: SANGER: Inhibition of human HSC-3 cell growth in a cell viability assay.

LK-2 = assay: cells; assay type: functional, cell-based; conditions: Homo sapiens;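 also: growth inhibition of LK-2 cells, read out with a viability assay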
Description: SANGER: Inhibition of human LK-2 cell growth in a cell viability assay.

COR-L23 = assay: cells; assay type: functional, cell-based; conditions: Homo sapiens;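 also: cell viability assay measuring how strongly compounds suppress growth of COR-L23 cells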
Description: SANGER: Inhibition of human COR-L23 cell growth in a cell viability assay.

M14 = assay: cells; assay type: functional, cell-based; conditions: Homo sapiens;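 also: growth inhibition of M14 cells, read out with a cell viability assay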
Description: SANGER: Inhibition of human M14 cell growth in a cell viability assay.

JEG-3 = assay: cells; assay type: functional, cell-based; conditions: Homo sapiens;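 also: growth inhibition of human JEG-3 cells, read out with a cell viability assay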
Description: SANGER: Inhibition of human JEG-3 cell growth in a cell viability assay.

KYSE-520 cell line = assay: cells; assay type: functional, cell-based; conditions: Homo sapiens;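 also: growth inhibition of human KYSE-520 cells, read out with a viability assay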
Description: SANGER: Inhibition of human KYSE-520 cell growth in a cell viability assay.

SW1990 = assay: cells; assay type: functional, cell-based; conditions: Homo sapiens
Description: SANGER: Inhibition of human SW1990 cell growth in a cell viability assay.

CA46 = assay: cells; assay type: functional, cell-based; conditions: Homo sapiens;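 also: growth inhibition of human CA46 cells, read out by a cell viability assay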
Description: SANGER: Inhibition of human CA46 cell growth in a cell viability assay.

CAMA-1 = assay: cells; assay type: functional, cell-based; conditions: Homo sapiens;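 also: growth inhibition of CAMA-1 cells, read out with a cell viability assay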
Description: SANGER: Inhibition of human CAMA-1 cell growth in a cell viability assay.

647-V = assay: cells; assay type: functional, cell-based; conditions: Homo sapiens;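 also: growth inhibition of 647-V cells, read out with a cell viability assay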
Description: SANGER: Inhibition of human 647-V cell growth in a cell viability assay.

NCI-H719 = assay: cells; assay type: functional, cell-based; conditions: Homo sapiens;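 also: growth inhibition of the cultured cell line, read out with a viability assay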
Description: SANGER: Inhibition of human NCI-H719 cell growth in a cell viability assay.

PA-1 = assay: cells; assay type: functional, cell-based; conditions: Homo sapiens;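 also: IC50 for suppression of PA-1 cell proliferation, determined with a cell viability read-out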
Description: SANGER: Inhibition of human PA-1 cell growth in a cell viability assay.

IGROV-1 = assay: cells; assay type: functional, cell-based; conditions: Homo sapiens;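 also: reduction of IGROV-1 cell growth, read out with a viability assay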
Description: SANGER: Inhibition of human IGROV-1 cell growth in a cell viability assay.

CHP-126 = assay: cells; assay type: functional, cell-based; conditions: Homo sapiens
Description: SANGER: Inhibition of human CHP-126 cell growth in a cell viability assay.

RPMI-2650 = assay: cells; assay type: functional, cell-based; conditions: Homo sapiens
Description: SANGER: Inhibition of human RPMI-2650 cell growth in a cell viability assay.

ACHN = assay: cells; assay type: functional, cell-based; conditions: Homo sapiens;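 also: cell viability read-out used to gauge how strongly growth of human ACHN cells is suppressed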
Description: SANGER: Inhibition of human ACHN cell growth in a cell viability assay.

PANC-03-27 = assay: cells; assay type: functional, cell-based; conditions: Homo sapiens
Description: SANGER: Inhibition of human PANC-03-27 cell growth in a cell viability assay.

SCC-4 = assay: cells; assay type: functional, cell-based; conditions: Homo sapiens;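 also: growth inhibition of human SCC-4 cells, read out as cell viability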
Description: SANGER: Inhibition of human SCC-4 cell growth in a cell viability assay.

LU-99A = assay: cells; assay type: functional, cell-based; conditions: Homo sapiens;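 also: growth inhibition of LU-99A cells, read out with a cell viability assay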
Description: SANGER: Inhibition of human LU-99A cell growth in a cell viability assay.

OPM-2 = assay: cells; assay type: functional, cell-based; conditions: Homo sapiens;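 also: growth of OPM-2 cells measured with a viability assay, IC50 for suppression of proliferation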
Description: SANGER: Inhibition of human OPM-2 cell growth in a cell viability assay.

BL-70 = assay: SANGER: Inhibition of human BL-70 cell growth in a cell viability assay.; assay type: functional, cell-based
NCI-H2342 = assay: cells; assay type: functional, cell-based; conditions: Homo sapiens;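 also: growth inhibition of the cancer cell line, determined with a cell viability assay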
Description: SANGER: Inhibition of human NCI-H2342 cell growth in a cell viability assay.

NCI-H28 = assay: cells; assay type: functional, cell-based; conditions: Homo sapiens;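 also: growth inhibition of human NCI-H28 cells, read out as cell viability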
Description: SANGER: Inhibition of human NCI-H28 cell growth in a cell viability assay.

NCI-H1437 = assay: cells; assay type: functional, cell-based; conditions: Homo sapiens;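 also: growth inhibition of human NCI-H1437 cells, read out by a cell viability assay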
Description: SANGER: Inhibition of human NCI-H1437 cell growth in a cell viability assay.

OVCAR-3 = assay: cells; assay type: functional, cell-based; conditions: Homo sapiens;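 also: growth inhibition of human OVCAR-3 cells, determined by a cell viability assay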
Description: SANGER: Inhibition of human OVCAR-3 cell growth in a cell viability assay.

PC-3 = assay: cells; assay type: functional, cell-based; conditions: Homo sapiens;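 also: cell viability assay measuring growth inhibition of PC-3 cells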
Description: SANGER: Inhibition of human PC-3 cell growth in a cell viability assay.

COLO-680N = assay: cells; assay type: functional, cell-based; conditions: Homo sapiens;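 also: cell viability assay used to measure inhibition of COLO-680N cell growth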
Description: SANGER: Inhibition of human COLO-680N cell growth in a cell viability assay.

MKN-28 = assay: cells; assay type: functional, cell-based; conditions: Homo sapiens;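 also: cell viability assay read-out, IC50 reflects suppression of growth of human MKN-28 cells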
Description: SANGER: Inhibition of human MKN28 cell growth in a cell viability assay.

NCI-H441 = assay: cells; assay type: functional, cell-based; conditions: Homo sapiens;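 also: growth inhibition of NCI-H441 cells, read out with a cell viability assay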
Description: SANGER: Inhibition of human NCI-H441 cell growth in a cell viability assay.

S-117 = assay: cells; assay type: functional, cell-based; conditions: Homo sapiens
Description: SANGER: Inhibition of human S-117 cell growth in a cell viability assay.

SK-MEL3 = assay: cells; assay type: functional, cell-based, SK-MEL-3; conditions: Homo sapiens;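 also: growth inhibition of human SK-MEL-3 cells, read out with a cell viability assay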
Description: SANGER: Inhibition of human SK-MEL-3 cell growth in a cell viability assay.

G-402 = assay: cells; assay type: functional, cell-based; conditions: Homo sapiens
Description: SANGER: Inhibition of human G-402 cell growth in a cell viability assay.

BC1 cell line = assay: SANGER: Inhibition of human BC-1 cell growth in a cell viability assay.; assay type: functional, cell-based
SK-LU-1 = assay: cells; assay type: functional, cell-based; conditions: Homo sapiens;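 also: cell viability assay measuring growth inhibition of human SK-LU-1 cells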
Description: SANGER: Inhibition of human SK-LU-1 cell growth in a cell viability assay.

GP5d = assay: cells; assay type: functional, cell-based; conditions: Homo sapiens;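 also: growth inhibition of human GP5d cells, read out with a cell viability assay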
Description: SANGER: Inhibition of human GP5d cell growth in a cell viability assay.

RL = assay: cells; assay type: functional, cell-based; conditions: Homo sapiens
Description: SANGER: Inhibition of human RL cell growth in a cell viability assay.

8505C = assay: cells; assay type: functional, cell-based; conditions: Homo sapiens
Description: SANGER: Inhibition of human 8505C cell growth in a cell viability assay.

SW780 = assay: cells; assay type: functional, cell-based; conditions: Homo sapiens;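 also: growth inhibition of the cells, read out with a cell viability assay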
Description: SANGER: Inhibition of human SW780 cell growth in a cell viability assay.

SK-MEL-28 = assay: cells; assay type: functional, cell-based; conditions: Homo sapiens;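 also: growth inhibition of human SK-MEL-28 cells, read out with a cell viability assay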
Description: SANGER: Inhibition of human SK-MEL-28 cell growth in a cell viability assay.

CHL-1 = assay: cells; assay type: functional, cell-based; conditions: Homo sapiens;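 also: cell growth inhibition, read out with a cell viability assay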
Description: SANGER: Inhibition of human CHL-1 cell growth in a cell viability assay.

NCI-H1694 = assay: cells; assay type: functional, cell-based; conditions: Homo sapiens;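 also: cell viability assay measuring inhibition of growth in human NCI-H1694 cells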
Description: SANGER: Inhibition of human NCI-H1694 cell growth in a cell viability assay.

DMS-153 = assay: cells; assay type: functional, cell-based; conditions: Homo sapiens
Description: SANGER: Inhibition of human DMS-153 cell growth in a cell viability assay.

SAOS-2 = assay: cells; assay type: functional, cell-based; conditions: Homo sapiens;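 also: growth inhibition of human Saos-2 cells determined by a cell viability assay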
Description: SANGER: Inhibition of human Saos-2 cell growth in a cell viability assay.

A-375 = assay: cells; assay type: functional, cell-based; conditions: Homo sapiens;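 also: growth inhibition of A375 cells, read out with a cell viability assay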
Description: SANGER: Inhibition of human A375 cell growth in a cell viability assay.

IMR-5 = assay: cells; assay type: functional, cell-based; conditions: Homo sapiens;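 also: growth inhibition of human IMR-5 cells, read out with a cell viability assay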
Description: SANGER: Inhibition of human IMR-5 cell growth in a cell viability assay.

In the case of CCNC(=O)c1noc(-c2cc(C(C)C)c(O)cc2O)c1-c1ccc(CN2CCOCC2)cc1 [LUMINESPIB], the IC50 (KARPAS-422) is reported as 140 nM, the IC50 (LB996-RCC) is reported as 27.1 nM and the IC50 (COLO-678) is reported as greater than 256 nM. It also gave an IC50 (HT-1376) of 98.6 nM, an IC50 (KYSE-410) of 15.9 nM and an IC50 (SW626) of 21.2 nM. It also gave an IC50 (HEC-1) of 71.6 nM, an IC50 (639-V) of 4.85 nM and an IC50 5637 of 28.2 nM. For the same compound, the IC50 (CESS) was 31.2 nM, the IC50 (PC-14) was 19.3 nM and the IC50 (SAS) was 92.1 nM. It also gave an IC50 (LP-1) greater than 256 nM, an IC50 (CAL-12T) of 9.22 nM and an IC50 (NCI-H661) of 112 nM. For the same compound, the IC50 (LN-405) was greater than 256 nM, the IC50 (HCC1569) was 36.1 nM and the IC50 (MCF7) was 3.35 nM. For the same compound, the IC50 (HSC-3) was 6.41 nM, the IC50 (LK-2) was 102 nM and the IC50 (COR-L23) was 27.1 nM. The IC50 (M14) was 218 nM, the IC50 (JEG-3) was 95.1 nM and the IC50 (KYSE-520 cell line) was 26.1 nM. It also gave an IC50 (SW1990) of 27.2 nM, an IC50 (CA46) of 54.3 nM and an IC50 (CAMA-1) of 63 nM. The IC50 (647-V) was 149 nM, the IC50 (NCI-H719) was greater than 256 nM and the IC50 (PA-1) was 27.6 nM. The IC50 (IGROV-1) was 8.14 nM, the IC50 (CHP-126) was 75.7 nM and the IC50 (RPMI-2650) was 14.3 nM. The IC50 (ACHN) was 23.5 nM, the IC50 (PANC-03-27) was 11.6 nM and the IC50 (SCC-4) was 28.1 nM. The IC50 (LU-99A) was 72.9 nM, the IC50 (OPM-2) was greater than 256 nM and the IC50 (BL-70) was 33.9 nM. The IC50 (NCI-H2342) was 17.6 nM, the IC50 (NCI-H28) was greater than 256 nM and the IC50 (NCI-H1437) was 63.3 nM. For the same compound, the IC50 (OVCAR-3) was 141 nM, the IC50 (PC-3) was 132 nM and the IC50 (COLO-680N) was 44.1 nM. The IC50 (MKN-28) was 30.1 nM, the IC50 (NCI-H441) was 109 nM and the IC50 (S-117) was 127 nM. It also gave an IC50 (SK-MEL3) of 48 nM, an IC50 (G-402) of 36.1 nM and an IC50 (BC1 cell line) of 33.7 nM. The IC50 (SK-LU-1) was 18.5 nM, the IC50 (GP5d) was 27.2 nM and the IC50 (RL) was greater than 256 nM. It also gave an IC50 (8505C) of 8.21 nM, an IC50 (SW780) greater than 256 nM and an IC50 (SK-MEL-28) greater than 256 nM. For the same compound, the IC50 (CHL-1) was 41.7 nM, the IC50 (NCI-H1694) was greater than 256 nM and the IC50 (DMS-153) was 77.3 nM. It also gave an IC50 (SAOS-2) of 76 nM, an IC50 (A-375) of 21.7 nM and an IC50 (IMR-5) of 44.9 nM.
